US7273863B1, “Benzophenones as inhibitors of reverse transcriptase” (SmithKline Beecham Corporation, priority 1999, dated 2007)

Legend:
Assay in all cases: HeLa cell assay (HIV-LTR β-galactosidase reporter)
WTRVA = assay type: cell-based, HIV-1; conditions: Human immunodeficiency virus 1, Virus Type WTRVA, read-out: IC50 (nM) Range
Method: (§1) The HeLa cell assay was performed according to a modification of Kimpton J. and Emerman M., Detection of replication-competent and pseudotyped human immunodeficiency virus with a sensitive cell line on the basis of activation of an integrated β-galactosidase gene, J. Virol. 66:2232-2239 (1992), in which HIV-1 infection is detected by the activation of an HIV-LTR driven β-galactosidase reporter that is integrated into the genome of a CD4^+ HeLa cell line. Quantitation of β-galactosidase is achieved by measuring the activation of a chemiluminescent substrate (Tropix). The concentration of each compound required to inhibit 50% (IC50) of the HIV-1 induced β-galactosidase signal, relative to untreated controls, was determined for each isogenic, recombinant virus.
(§2) HeLa-CD4-LTR-β-gal cells were obtained from the NIH AIDS Research and Reference Reagent Program. Cells were propagated in DMEM containing 10% fetal bovine serum, 0.2 mg/ml geneticin and 0.1 mg/ml hygromycin B. Cells were routinely split by trypsinization when confluency reached 80% (approximately every 2 to 3 days).
(§3) DNA encoding the HIV-1 reverse transcriptase was subcloned from a M13 phage into a general shuttle vector, pBCSK+, as a ˜1.65 kbp EcoRI/HindIII ended DNA fragment. The HIV DNA insert of the resulting plasmid, pRT2, was completely sequenced on both strands prior to use in site directed mutagenesis experiments. Specific amino acid replacements were made using Stratagene Quick Change reagents and mutagenic oligonucleotides from Oligos. Following mutagenesis, the entire mutant RT coding sequence was verified by sequencing both DNA strands.
(§4) Mutant HIV-1 strains were isolated by a modified Recombinant Virus Assay (Kellam P. and Larder B., Recombinant virus assay: a rapid, phenotypic assay for assessment of drug susceptibility of human immunodeficiency virus type 1 isolates, Antimicrobial Agents and Chemotherapy, 38:23-30, 1994). 1×10^7 Jurkat T-cells (maintained in RPMI containing 10% fetal bovine serum, split 1:5 every 5 to 6 days) were co-transfected with EcoRI/HindIII digested mutant RT plasmid and Bst EII-digested HIV-1HXB2ΔRT DNA in the presence of DMRIE-C transfection reagent (Gibco) according to supplier's recommended protocol. Each mutant RT coding sequence was crossed into the RT-deleted HIV-1 viral DNA backbone by in vivo homologous recombination. Transfected cell cultures were expanded and monitored until syncitia formation and CPE were extensive. Virus was harvested by clear spin of the culture supernatants and frozen at −80 C as primary stock. Recombinant progeny virus was sequenced in the RT region to confirm the mutant genotype. Virus stocks were further expanded by infection of Jurkat cells, harvested and stored as frozen aliquots. Stocks were titered in HeLa MAGI cells for assay.
(§5) The HIV-1HXB2 mutants were titered in the HeLa MAGI assay system to determine the relative light units (RLU) per ml, a measure of infectivity relevant for this assay system. Virus stocks were diluted in a 2-fold series into DMEM containing 10% fetal bovine serum plus 20 ug/ml DEAE-dextran and assayed as described in the Experimental Protocol section, below.
(§6) 96-well microtiter plate(s) (Costar #3598) were seeded with 3×10^3 HeLa-CD4-LTR-β-gal in 100 μl DMEM containing 10% fetal bovine serum. Plates were placed in a 37° C., 5% CO2 humidified incubator overnight. The following day, mutant virus stocks were thawed in a room temperature water bath and diluted into DMEM containing 10% fetal bovine serum and 20 μg/ml DEAE-dextran to achieve an input of 1500 to 2000 RLU/ml. All media was removed with an 8 channel manifold aspirator and 35 μl (50 to 70 total RLUs) of diluted virus was added to each well for virus adsorption. Plates were placed in a 37° C., 5% CO2 humidified incubator for 1.5 to 2 hours.
(§7) Compound titration plates were prepared at 1.35× final concentration during the virus adsorption period. […]

[1] = system: isogenic HIV-1 RT mutant virus G190A; assay type: cell-based; conditions: Human immunodeficiency virus 1, HeLa, read-out: IC50 (nM) Range
Method: as §1, §2, §3, §4, §5, §6, §7

[2] = system: isogenic HIV-1 RT mutant virus K103N/G190A; assay type: cell-based; conditions: Human immunodeficiency virus 1, HeLa, read-out: IC50 (nM) Range
Method: as §1, §2, §3, §4, §5, §6, §7

[3] = system: isogenic HIV-1 RT mutant virus K103N/P225H; assay type: cell-based; conditions: Human immunodeficiency virus 1, HeLa, read-out: IC50 (nM) Range
Method: as §1, §2, §3, §4, §5, §6, §7

[4] = system: isogenic HIV-1 RT mutant virus K103N/V108I; assay type: cell-based; conditions: Human immunodeficiency virus 1, HeLa, read-out: IC50 (nM) Range
Method: as §1, §2, §3, §4, §5, §6, §7

[5] = system: isogenic HIV-1 RT mutant virus K103N/Y181C; assay type: cell-based; conditions: Human immunodeficiency virus 1, HeLa, read-out: IC50 (nM) Range
Method: as §1, §2, §3, §4, §5, §6, §7

[6] = system: isogenic HIV-1 RT mutant virus K103N; assay type: cell-based; conditions: Human immunodeficiency virus 1, HeLa, read-out: IC50 (nM) Range
Method: as §1, §2, §3, §4, §5, §6, §7

[7] = system: isogenic HIV-1 RT mutant virus L100I; assay type: cell-based; conditions: Human immunodeficiency virus 1, HeLa, read-out: IC50 (nM) Range
Method: as §1, §2, §3, §4, §5, §6, §7

[8] = system: isogenic HIV-1 RT mutant virus P225H; assay type: cell-based; conditions: Human immunodeficiency virus 1, HeLa, read-out: IC50 (nM) Range
Method: as §1, §2, §3, §4, §5, §6, §7

[9] = system: isogenic HIV-1 RT mutant virus P236L; assay type: cell-based; conditions: Human immunodeficiency virus 1, HeLa, read-out: IC50 (nM) Range
Method: as §1, §2, §3, §4, §5, §6, §7

[10] = system: isogenic HIV-1 RT mutant virus V106A/Y181C; assay type: cell-based; conditions: Human immunodeficiency virus 1, HeLa, read-out: IC50 (nM) Range
Method: as §1, §2, §3, §4, §5, §6, §7

[11] = system: isogenic HIV-1 RT mutant virus V106I/Y181C; assay type: cell-based; conditions: Human immunodeficiency virus 1, HeLa, read-out: IC50 (nM) Range
Method: as §1, §2, §3, §4, §5, §6, §7

[12] = system: isogenic HIV-1 RT mutant virus V106I; assay type: cell-based; conditions: Human immunodeficiency virus 1, HeLa, read-out: IC50 (nM) Range
Method: as §1, §2, §3, §4, §5, §6, §7

[13] = system: isogenic HIV-1 RT mutant virus V108I/Y181C; assay type: cell-based; conditions: Human immunodeficiency virus 1, HeLa, read-out: IC50 (nM) Range
Method: as §1, §2, §3, §4, §5, §6, §7

[14] = system: isogenic HIV-1 RT mutant virus V108I; assay type: cell-based; conditions: Human immunodeficiency virus 1, HeLa, read-out: IC50 (nM) Range
Method: as §1, §2, §3, §4, §5, §6, §7

[15] = system: isogenic HIV-1 RT mutant virus Y181C; assay type: cell-based; conditions: Human immunodeficiency virus 1, HeLa, read-out: IC50 (nM) Range
Method: as §1, §2, §3, §4, §5, §6, §7

Measured: IC50

Cc1cc(C#N)cc(C(=O)c2cc(Cl)ccc2OCC(=O)Nc2ccc(S(N)(=O)=O)nc2C)c1 [Compound 503]
< 10 nM: WTRVA | [1] | [2] | [3] | [4] | [5] | [6] | [7] | [8] | [9] | [10] | [11] | [12] | [13] | [14] | [15]

Cc1cc(C#N)cc(C(=O)c2cc(Cl)ccc2OCC(=O)Nc2cnc(S(N)(=O)=O)cc2C)c1 [Compound 587]
< 10 nM: WTRVA | [1] | [2] | [3] | [4] | [5] | [6] | [7] | [8] | [9] | [10] | [12] | [13] | [14] | [15]
11 to 100 nM: [11]

Cc1cc(C#N)cc(C(=O)c2cc(Cl)ccc2OCC(=O)Nc2ccc(OCCCN3CC=CC3)cc2C)c1 [Compound 593]
11 to 100 nM: [11]
< 10 nM: WTRVA | [1] | [2] | [3] | [4] | [5] | [6] | [7] | [8] | [9] | [10] | [12] | [13] | [14] | [15]
